In patent publication US5635477A, “Cyclic compounds useful as inhibitors of platelet glycoprotein IIB/IIIA” (The DuPont Merck Pharmaceutical Company, priority 1995, dated 1997):
Like-named read-outs stand apart in the source and are kept apart here. Starred links: 1 amine or outer side, 2 acyl side, 3 side chain; linkers in the order of their positions; H or OH if unused. Non-standard residues stand in square brackets, D forms with d. Residues, ends and D or L forms follow the SMILES beside them. X4 = O=C(c1cc(CN[*:1])ccc1Cl)[*:2]; NMeR = CN[C@@H](CCCNC(=N)N)C(=O)O; X3 = Cc1ccc(CN[*:1])cc1C(=O)[*:2]; X8 = O=C(c1cc(CN[*:1])ccc1I)[*:2]; dAbu = CC[C@@H](N)C(=O)O

Tests used:
[1] = molecular target: agonist-induced platelet aggregation (Homo sapiens, UniProt P05106+P08514); assay: Platelet Aggregation Assay; format: cell-based; conditions: human PRP; agonist-induced aggregation
agonist-induced platelet aggregation, sequence (P08514 32-1039): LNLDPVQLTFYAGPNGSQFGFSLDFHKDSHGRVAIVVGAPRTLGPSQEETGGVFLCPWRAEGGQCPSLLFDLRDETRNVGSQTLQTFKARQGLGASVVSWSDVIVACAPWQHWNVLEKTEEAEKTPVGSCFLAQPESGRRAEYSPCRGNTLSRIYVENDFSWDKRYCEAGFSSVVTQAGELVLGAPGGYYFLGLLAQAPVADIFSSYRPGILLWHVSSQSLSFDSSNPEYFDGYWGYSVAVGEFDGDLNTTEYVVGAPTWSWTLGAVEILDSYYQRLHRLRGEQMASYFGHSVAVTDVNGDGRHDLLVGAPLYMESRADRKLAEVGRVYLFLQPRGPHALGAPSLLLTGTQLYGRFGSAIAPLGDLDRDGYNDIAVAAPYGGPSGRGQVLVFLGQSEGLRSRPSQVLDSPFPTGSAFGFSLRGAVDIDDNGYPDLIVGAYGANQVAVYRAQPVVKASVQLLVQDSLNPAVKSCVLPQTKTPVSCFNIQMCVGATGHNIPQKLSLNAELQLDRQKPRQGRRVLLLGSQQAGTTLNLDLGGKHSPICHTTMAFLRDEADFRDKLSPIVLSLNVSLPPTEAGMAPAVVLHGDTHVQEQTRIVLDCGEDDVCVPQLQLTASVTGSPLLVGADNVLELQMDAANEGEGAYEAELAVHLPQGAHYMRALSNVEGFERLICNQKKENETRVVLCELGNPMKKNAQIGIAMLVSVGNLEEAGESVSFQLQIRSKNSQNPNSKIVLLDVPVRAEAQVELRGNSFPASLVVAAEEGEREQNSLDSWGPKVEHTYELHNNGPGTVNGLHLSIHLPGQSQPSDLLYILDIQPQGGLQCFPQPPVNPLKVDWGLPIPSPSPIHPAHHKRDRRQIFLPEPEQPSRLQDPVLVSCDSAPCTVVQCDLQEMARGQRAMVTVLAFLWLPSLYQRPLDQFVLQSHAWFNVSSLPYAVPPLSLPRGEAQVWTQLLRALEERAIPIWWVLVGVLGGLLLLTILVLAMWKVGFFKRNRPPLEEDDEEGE
agonist-induced platelet aggregation, sequence (P05106 27-788): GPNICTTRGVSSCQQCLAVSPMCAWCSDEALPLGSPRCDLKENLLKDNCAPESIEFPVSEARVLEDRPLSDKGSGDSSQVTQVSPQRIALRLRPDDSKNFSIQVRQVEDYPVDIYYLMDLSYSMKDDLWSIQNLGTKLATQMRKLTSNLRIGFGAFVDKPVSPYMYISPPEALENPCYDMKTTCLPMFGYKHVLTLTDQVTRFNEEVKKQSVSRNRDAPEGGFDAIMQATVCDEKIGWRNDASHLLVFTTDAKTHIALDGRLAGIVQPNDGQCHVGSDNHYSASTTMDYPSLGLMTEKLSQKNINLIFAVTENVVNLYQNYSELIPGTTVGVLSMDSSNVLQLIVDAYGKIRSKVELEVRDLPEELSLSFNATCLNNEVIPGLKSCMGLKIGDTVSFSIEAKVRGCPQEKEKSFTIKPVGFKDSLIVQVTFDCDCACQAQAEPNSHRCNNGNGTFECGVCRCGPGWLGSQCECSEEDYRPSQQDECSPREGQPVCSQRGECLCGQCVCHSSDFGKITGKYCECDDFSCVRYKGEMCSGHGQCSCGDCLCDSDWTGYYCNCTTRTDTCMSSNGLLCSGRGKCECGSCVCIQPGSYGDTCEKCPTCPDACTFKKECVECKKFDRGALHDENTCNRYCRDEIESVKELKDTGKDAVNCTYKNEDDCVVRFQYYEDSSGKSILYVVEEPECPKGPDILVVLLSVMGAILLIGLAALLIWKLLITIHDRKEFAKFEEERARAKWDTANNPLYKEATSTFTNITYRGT
Method: Blood was collected into 10 ml citrated Vacutainer tubes.

[2] = system: already formed platelet-rich clot; conditions: for lytic effect on already formed platelet-rich clot: varying concentrations
Method: Thrombolytic Assay: Venous blood was obtained from the arm of a healthy human donor who was drug-free and aspirin free for at least two weeks prior to blood collection, and placed into 10 ml citrated Vacutainer tubes. The blood was centrifuged for 15 minutes at 1500 ×g at room temperature, and platelet rich plasma (PRP) was removed. To the PRP was then added 1×10^- 3M of the agonist ADP, epinephrine, collagen, arachidonate, serotonin or thrombin, or a mixture thereof, and the PRP incubated for 30 minutes. The PRP was centrifuged for 12 minutes at 2500×g at room temperature. The supernatant was then poured off, and the platelets remaining in the test tube were resuspended in platelet poor plasma (PPP), which served as a plasminogen source. The suspension was then assayed on a Coulter Counter (Coulter Electronics, Inc., Hialeah, Fla.), to determine the platelet count at the zero time point. After obtaining the zero time point, test compounds were added at various concentrations. Test samples were taken at various time points and the platelets were counted using the Coulter Counter. To determine the percent of lysis, the platelet count at a time point subsequent to the addition of the test compound was subtracted from the platelet count at the zero time point, and the resulting number divided by the platelet count at the zero time point. […] For the IC50 evaluation, the test compounds were added at various concentrations, and the percentage of lysis caused by the test compounds was calculated.
Compounds A and B were also tested at varying concentrations using the thrombolytic assay described above (FIG. Ib). […] The clot was formed by incubating platelets with a mixture of agonists (TEAC mixture), which consists of thrombin (0.01 U/ml), epinephrine (250 uM), ADP (250 uM), and collagen (10 ug.ml), for 30 minutes. As a comparison, a linear peptide of sequence arginine-glycine-aspartic acid-serine (RGDS) was also tested in the thrombolytic assay.

[3] = system: platelet granular secretion; conditions: cited from earlier work

Row | Compound | IC50 [1] [nM] | effect on platelet granular secretion (PAI-1, serotonin) [3] | other results
1 | CC(C)[C@H]1NC(=O)c2cccc(c2)CNC(=O)[C@H](CC(=O)O)NC(=O)CNC(=O)[C@H](CCCNC(=N)N)N(C)C1=O [Example 4, cyclo-(D-Val-NMeArg-Gly-Asp-Mamb)] | < 1000 | – | IC50 [2]: 500 to 1000 nM; thrombolytic effect in combination with tPA, urokinase or streptokinase ([2]; in vitro, pre-formed platelet-rich clot): significantly better than the additive effects of both agents; lytic effect on already formed platelet-rich clot ([2]; listed as B): significant lyric efficacy of pre-formed platelet rich-clot; lytic effect on already formed platelet-rich clot ([2]; listed as Compound B): significant lytic effect on the clot
2 | CC(=O)Oc1ccccc1C(=O)O [aspirin, acetylsalicyclic acid, reference compound] | – | inhibit platelet granular secretion | –
3 | hirudin | – | inhibit platelet granular secretion | –

Continued, in another order:

Row | IC50 [1] [nM] | Compound | effect on platelet granular secretion (PAI-1, serotonin) [3] | other results
4 | < 1000 | CC[C@H]1NC(=O)c2cc(ccc2Cl)CNC(=O)[C@H](CC(=O)O)NC(=O)CNC(=O)[C@H](CCCNC(=N)N)N(C)C1=O [Example 100a, cyclo-(D-Abu-NMeArg-Gly-Asp-3-aminomethyl-6-chlorobenzoic acid)] (cyclo([NMeR]GD[X4][dAbu])) | – | –
5 | < 1000 | CC[C@H]1NC(=O)c2cc(ccc2I)CNC(=O)[C@H](CC(=O)O)NC(=O)CNC(=O)[C@H](CCCNC(=N)N)N(C)C1=O [Example 100b, cyclo-(D-Abu-NMeArg-Gly-Asp-3-aminomethyl-6-iodobenzoic acid)] (cyclo([NMeR]GD[X8][dAbu])) | – | –
6 | < 1000 | CC[C@H]1NC(=O)c2cc(ccc2C)CNC(=O)[C@H](CC(=O)O)NC(=O)CNC(=O)[C@H](CCCNC(=N)N)N(C)C1=O [Example 100c, cyclo-(D-Abu-NMeArg-Gly-Asp-3-aminomethyl-6-methylbenzoic acid)] (cyclo([NMeR]GD[X3][dAbu])) | – | –
